Test results taken from patent US9376449B2, “Indole carboxamide derivative” (Astellas Pharma Inc., priority 2012, dated 2016).
Like-named read-outs stand apart in the source and are kept apart here.

Columns and labels:
human MT2 receptor = molecular target: T1, human MT2 receptor (Homo sapiens, UniProt P49286); experiment: Activation of human MT2 receptor in receptor-expressing HEK293 cells (intracellular Ca2+, FLIPR); type: cell-based; settings: for Emax: HEK293, maximum reaction by ramelteon taken as 100%, solvent only 0%; for EC50: HEK293 cells stably expressing human MT2 and Gq/i chimeric G-protein, intracellular Ca2+ by FLIPR
T1 sequence (P49286 1-362): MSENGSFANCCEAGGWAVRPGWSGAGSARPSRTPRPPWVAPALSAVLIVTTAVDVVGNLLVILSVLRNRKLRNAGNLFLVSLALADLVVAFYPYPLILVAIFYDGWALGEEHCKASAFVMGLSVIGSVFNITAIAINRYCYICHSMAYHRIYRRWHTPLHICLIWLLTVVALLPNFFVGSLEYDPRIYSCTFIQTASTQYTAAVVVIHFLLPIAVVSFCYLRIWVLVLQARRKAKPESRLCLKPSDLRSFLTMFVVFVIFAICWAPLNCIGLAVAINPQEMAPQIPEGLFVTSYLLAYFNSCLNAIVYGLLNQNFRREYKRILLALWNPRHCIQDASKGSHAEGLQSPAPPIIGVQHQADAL
Protocol: (§1) (1) Isolation of Human MT1 and MT2 Receptor and Construction of Expression Vector
(§2) A human MT1 receptor gene (GenBank Accession No.: NM_005958.3) and a human MT2 receptor gene (GenBank Accession No.: NM_005959.3) were each introduced into an expression vector pCDNA3.1/Zeo (Invitrogen, Inc.).
(§3) (2) Construction of Cells Stably Expressing Human MT1 and Human MT2 Receptor
(§4) The introduction was carried out according to the attached instructions, using a Lipofectoamine (registered trademark) 2000 Reagent (Invitrogen, Inc.). Zeocin and hygromycin were used as a resistant drug, and the cell was incubated for 15 days at 0.02 mg/mL and 0.05 mg/mL, respectively, thereby acquiring drug-resistant clones.
(§5) (3) Measurement of Intracellular Ca^2+ Concentration by FLIPR (Registered Trademark)
(§6) The respective stably expressing cells were dispensed into 96-well poly-D-lysine-coated plates (Falcon Co.) to 40,000 cells/well the day before the experiment, and incubated overnight in a DMEM (Invitrogen, Inc.) medium including 10% FBS at 37° C. and 5% CO2. The medium was replaced with a loading buffer (washing solution (Hank's balanced salt solution (HBSS), 20 mM HEPES-NaOH, 2.5 mM probenecid) including Fluo-4AM (Dojindo Co.) at 4 μM), and incubated for 1 hour at 37° C. and 5% CO2. Thereafter, the cells were washed with a plate washer (ELx405, BIO-TEK Instrument, Inc.) set with the washing solution, and set in an intracellular Ca^2+ concentration measuring systems (FLIPR (registered trademark), Molecular Device Co.). The test compound was dissolved in the washing solution in advance, diluted to a final concentration of −12 to −5 log M, set in a FLIPR (registered trademark) device together with the cells, and added to the cells in the device. At this time, a change in the intracellular Ca^2+ concentrations was measured.
(§7) Ex represents Example No. of the test compound.

human MT1 receptor = human MT1 receptor (Homo sapiens, UniProt P48039); experiment: Activation of human MT1 receptor in receptor-expressing HEK293 cells (intracellular Ca2+, FLIPR); type: cell-based; settings: for EC50: HEK293 cells stably expressing human MT1 and Gq/i chimeric G-protein, intracellular Ca2+ by FLIPR
Chain of human MT1 receptor (P48039 whole entry): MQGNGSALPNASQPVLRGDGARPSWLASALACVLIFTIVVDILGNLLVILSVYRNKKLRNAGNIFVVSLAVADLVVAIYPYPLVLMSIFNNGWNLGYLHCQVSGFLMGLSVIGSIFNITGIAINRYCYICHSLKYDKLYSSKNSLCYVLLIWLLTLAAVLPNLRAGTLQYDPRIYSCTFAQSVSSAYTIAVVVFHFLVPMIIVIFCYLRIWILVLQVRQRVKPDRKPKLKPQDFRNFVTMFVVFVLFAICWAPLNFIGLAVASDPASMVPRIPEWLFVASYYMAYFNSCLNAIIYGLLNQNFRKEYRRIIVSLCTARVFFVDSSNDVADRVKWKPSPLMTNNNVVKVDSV
Protocol: as §1, §2, §3, §4, §5, §6, §7

isolated urethra [1] = experiment: Isolated urethra contractile action; parameters: species or system rat; settings: test compound at 1 μM; contractile response by 10 μM phenylephrine as 100%; SD female rat urethra; read-out: Isolated urethra contraction (%)
Protocol: Test Example 2 Isolated Urethra Contractile Action
(1) Evaluation Test on Urethra Contractile Action of Test Compound Using Isolated Urethra
The urethra was isolated from an SD female rat having a body weight of 100 to 500 g. The isolated urethra was incised longitudinally to give a rectangular strip specimen having a width of about 3 mm, which was suspended in the circular muscle direction in 10 mL of a tissue bath filled with a Krebs-Henseleit solution (pH 7.4). The Krebs-Henseleit solution was bubbled with 95% O2 and 5% CO2, and kept at 37° C. The resting tension was set to 0.5 g to record the isometric contraction. After the resting tension was stabilized, contraction was elicited by the addition of 10 μM phenylephrine. After washing and stabilizing, the test compound was added cumulatively to a final concentration of −12 to −5 log M to measure a contractile response. By taking the contractile response by 10 μM phenylephrine as 100%, the ratio of the contractile response in the concentration of the test compound at 1 μM was calculated.
as §7

urethral pressure = experiment: Effect of test compound on urethral pressure in anesthetized rats; type: in vivo, rat; settings: 0.1 mg/kg intravenously, urethane-anesthetized SD female rats
Description: Test Example 3 Test to Evaluate Effect of Test Compound on Urethral Pressure
It has been reported that an increase in the urethra pressure is useful for the treatment of urinary incontinence, particularly stress urinary incontinence (for example, Drugs, 64, 14, 1503-1516 (2004)). In order to confirm whether the compound of the present invention increases the urethra pressure and thus is useful for the treatment of urinary incontinence, particularly stress urinary incontinence, the following tests were carried out.
SD female rats were anesthetized with urethane and subjected to laparotomy. Then, the bladder apex was incised and a catheter was inserted from the bladder apex. Further, the catheter tip was ligated and fixed to be located in the proximal urethra portion. The catheter was connected to a pressure transducer and an infusion pump. Further, a catheter for administrating the compound was fitted into the femoral vein. Physiological saline was continuously infused into the urethra and the perfusion pressure in the urethra was measured. After the urethral pressure was stabilized, the test compound that had been dissolved in physiological saline, or physiological saline including 5% dimethylacetamide and 0.5% Cremophor was administered intravenously at 0.1 mg/kg, and a change in urethral pressures was measured.
Further, the results of administering an active metabolite of midodrine (ST-1059: purchased from CHEMIZON) (J. Urology, 118, 980-982 (1977)) which is an α1 adrenoceptor agonist and has an effect on stress urinary incontinence in rat doses (0.01 mg/kg) presumed to correspond to the clinical doses are referenced and shown in the Tables below. The increment value in the urethra pressures of ramelteon and the Example compounds of the present invention at the time of administration are shown in Table 4. Ex represents Example No. of the test compound.

isolated urethra [2] = experiment: Test confirming that urethra contractile action by ramelteon is through MT1 and/or MT2 receptor (Luzindole); parameters: species or system rat; settings: for Second contractile rate by ramelteon (%): 20 minutes before ramelteon 1 μM, first contraction as 100%
Protocol: (2) Test for Confirming that Urethra Contractile Action is Action Through MT1 and/or MT2 Receptor
The urethra was isolated from an SD female rat having a body weight of 100 to 500 g. The isolated urethra was incised longitudinally to give a rectangular strip specimen having a width of about 3 mm, which was suspended in the muscle parallel to the circular to 10 mL of a tissue bath filled with a Krebs-Henseleit solution (pH 7.4). […] The resting tension was set to 0.5 g to record the isometric contraction. After the resting tension was stabilized, contraction was elicited by the addition of 10 μM phenylephrine. After washing and stabilizing, the test compound (ramelteon) at 1 μM was added to measure a contractile response. After washing and stabilizing, a solvent or Luzindole (purchased from Wako Pure Chemical Industries, Ltd.) (0.1 μM, 1 μM, or 10 μM) was added to the same specimen, and after 20 minutes, ramelteon at 1 μM was added again thereto to measure a contractile reaction. When the first contraction by ramelteon at 1 μM was taken as 100%, the second contractile rate by ramelteon was measured.

[3] = CNS penetration: CSF to plasma unbound concentration ratio in rat; type: in vivo; settings: CSF and plasma (unbound), iv, 15 minutes after intravenous administration, CCSF/Cplasma,u, read-out: Kp,uu,CSF,iv15min
Protocol: Test Example 4 Test for Evaluating CNS Penetration
(1) Measurement of Unbound Fraction (fp) in Rat Plasma
A test compound (100 μg/mL, 50% acetonitrile solution) at 1% (v/v) with respect to the amount of the plasma was added to rat plasma, and dispensed to a sample for a supernatant and a sample for the plasma. The sample for a supernatant was ultracentrifuged at 436,000×g and 37° C. for 140 minutes, and the sample for the plasma was incubated at 37° C. for 140 minutes.
After 140 minutes, the sample for a supernatant after the ultracentrifugation and the sample for the plasma were taken, and mixed with the blank plasma or the blank supernatant, respectively. Acetonitrile including an internal standard material was added to each of the samples, and after the centrifugation at 2150×g and 4° C. for 10 minutes the supernatant was injected into LC-MS/MS.
The unbound fraction in the plasma was calculated by the following equation.
(wherein fp: an unbound fraction in the plasma and D: a dilution rate of the plasma. fu,app=peak area ratio of supernatant sample/peak area ratio of the plasma sample, and peak area ratio=peak area of test compound/peak area of internal standard material).
(2) The CSF to Plasma Unbound Concentration Ratio in Rat
A 50% acetonitrile solution and an acetonitrile including internal standard material was added to the collected plasma or CSF. After centrifugation at 4° C. and 2150×g for 10 minutes, the supernatant was injected into LC-MS/MS, and the total concentration of the test compound in the plasma (Cplasma,t) and the concentration of the test compound in CSF (CCSF) were obtained. The unbound concentration in the plasma (Cplasma,u) of the test compound and the CSF-to plasma unbound concentration ratio (Kp,uu,CSF) of the test compound was calculated by the following equation.
as §7

3T3 = experiment: In vitro 3T3 NRU phototoxicity test; type: cell-based
Protocol: Test Example 6 Drug Pharmacokinetic Test, Safety Pharmacology Test, and Toxicity Test
Using some Example compounds of the present invention, a drug Pharmacokinetic test, a safety pharmacology test, and a toxicity test were carried out.
(iii) For the toxicity test, for example, an in vitro phototoxicity test was carried out. The evaluation of the in vitro phototoxicity test was carried out in accordance with Guidance for industry photosafety testing, Center for Drug Evaluation and Research Food and Drug Administration, 2003, which is a guideline of FDA (U.S. Food and Drug Administration), and Note for guidance on photosafety testing (CPMP/SWP/398/01, 2002) which is a guideline of EMA (European Medicines Agency), and the method described in OECD guideline for testing of chemicals 432: In vitro 3T3 NRU phototoxicity test, 2004, which is a test method described in the report of OECD.

[4] = HEK293, maximum reaction by ramelteon taken as 100%, solvent only 0%, read-out: MT1 Emax (%)

Row | SMILES | Emax (human MT2 receptor) | EC50 (human MT2 receptor) | Emax (human MT1 receptor; [4]) | EC50 (human MT1 receptor) | Emax (human MT1 receptor; HEK293, read-out: MT1 Emax (%)) | Kp uu at 0.25 h [3] | activation at 1 µM (isolated urethra [1]) | Increment value in the urethra pressures (mmHg) (urethral pressure) | Second contractile rate by ramelteon (%) (isolated urethra [2]; Luzindole 0.1 μM) | Second contractile rate by ramelteon (%) (isolated urethra [2]; Luzindole 1 μM) | Second contractile rate by ramelteon (%) (isolated urethra [2]; Luzindole 10 μM) | inhibition of isolated urethra contractile action by ramelteon (isolated urethra [2]; treatment with Luzindole 0.1-10 μM, in words) | phototoxicity action (3T3)
1 | CC(=O)NCCc1c(Cc2ccccc2)[nH]c2ccccc12 [Luzindole] |  |  |  |  |  |  |  |  | 88 ± 11% | 75 ± 5% | 61 ± 9% | inhibited in a concentration-dependent manner | 
2 | CNC(=O)c1[nH]c2cc(F)c(OC)cc2c1CCNC(=O)C(F)F [Ex 15] | 103% | 17 nM | 104% | 5.4 nM |  | 0.07 | 261% | 8.6 ± 0.9 mmHg |  |  |  |  | no phototoxicity action
3 | CCCC(=O)NCCc1c(C(=O)NC)[nH]c2ccc(OC)cc12 [Ex 32] | 111% | 31 nM | 106% | 7.7 nM |  |  | 143% | 10.8 ± 2.9 mmHg |  |  |  |  | 

Continued, in another order:

Row | Emax (human MT2 receptor) | EC50 (human MT2 receptor) | Emax (human MT1 receptor; [4]) | EC50 (human MT1 receptor) | Emax (human MT1 receptor; HEK293, read-out: MT1 Emax (%)) | Kp uu at 0.25 h [3] | SMILES | activation at 1 µM (isolated urethra [1]) | Increment value in the urethra pressures (mmHg) (urethral pressure) | Second contractile rate by ramelteon (%) (isolated urethra [2]; Luzindole 0.1 μM) | Second contractile rate by ramelteon (%) (isolated urethra [2]; Luzindole 1 μM) | Second contractile rate by ramelteon (%) (isolated urethra [2]; Luzindole 10 μM) | inhibition of isolated urethra contractile action by ramelteon (isolated urethra [2]; treatment with Luzindole 0.1-10 μM, in words) | phototoxicity action (3T3)
4 | 102% | 11 nM | 110% | 3.2 nM |  |  | CCCC(=O)NCCc1c(C(=O)NC)[nH]c2cc(F)c(OC)cc12 [Ex 35] | 171% | 8.2 ± 1.6 mmHg |  |  |  |  | 
5 |  |  |  |  | 94% |  | COc1ccc2[nH]cc(CCNC(C)=O)c2c1 [Melatonin, melatonin, reference compound] |  |  |  |  |  |  | 
6 | 104% | 18 nM | 121% | 10 nM |  |  | CCC(=O)NCCc1c(C(=O)NC)[nH]c2cc(F)c(OC)cc12 [Ex 36] | 107% | 7.3 ± 0.2 mmHg |  |  |  |  | 
